Reference: US7462600B2, “Macrolides” (Pfizer Inc, priority 2004, dated 2008)
Values after ≈ are worked out from the molar mass of the structure shown. Read-outs that look alike come from different tables or passages of the source.

Columns and labels:
Assay type in all cases: cell-based
[1] = tested on: Haemophilus influenzae 1218; assay: MIC, microtiter broth dilution (NCCLS M100-S14), H. influenzae 1218 (susceptible)
Summary of the method: (§1)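 Broth microdilution MICs in microtiter trays, run and interpreted per NCCLS M100-S14. Compounds were dissolved in DMSO as 40 mg/ml stocks.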

[2] = tested on: Streptococcus pneumoniae 1175; conditions: microtiter broth dilution
Summary of the method: as §1

[3] = tested on: Streptococcus pneumoniae 1095; conditions: microtiter broth dilution
Summary of the method: as §1

[4] = tested on: Streptococcus pneumoniae 1016; assay: MIC, microtiter broth dilution (NCCLS M100-S14), S. pneumoniae 1016 (susceptible)
Summary of the method: as §1

[5] = tested on: Streptococcus pyogenes 1079; assay: MIC, microtiter broth dilution (NCCLS M100-S14), S. pyogenes 1079 (ermB)
Summary of the method: as §1

[6] = H. influenzae 1218 (susceptible)
[7] = S. pneumoniae 1016 (susceptible)

Structure (SMILES)	MIC H. influenzae 1218 ([1]; Haemophilus influenzae 1218) [µg/mL]	MIC S. pneumo. 1175 ([2]; Streptococcus pneumoniae 1175) [µg/mL]	MIC S. pneumo. 1095 ([3]; Streptococcus pneumoniae 1095) [µg/mL]	MIC S. pneumo. 1016 ([4]; Streptococcus pneumoniae 1016) [µg/mL]	MIC S. pyogenes 1079 ([5]; Streptococcus pyogenes 1079) [µg/mL]	MIC H. influenzae 1218 [1, 6] [µg/mL]	MIC S. pneumo. 1175 ([2]; S. pneumoniae 1175 (mefA)) [µg/mL]	MIC S. pneumo. 1095 ([3]; S. pneumoniae 1095 (ermB)) [µg/mL]	MIC S. pneumo. 1016 [4, 7] [µg/mL]	MIC S. pyogenes 1079 ([5]; S. pyogenes 1079 (ermB)) [µg/mL]
CCC1OC(=O)C(C)C(=O)C(C)C(OC2OC(C)CC(N(C)C)C2O)C(C)(OC)CC(C)C(=O)C(C)C2N(C3CN(S(=O)(=O)c4ccc5oc(=O)[nH]c5c4)C3)C(=O)OC12C (centres unmarked) [Example 3.43, 3-descladinosyl-11,12-dideoxy-6-O-methyl-3-oxo-12,11-(oxycarbonyl-(1-(2,3-dihydro-2-oxobenzo[d]oxazole-5-sulfonyl)-azetidin-3-yl)-imino)-erythromycin A]	0.5 (≈ 0.578 µM)	0.5 (≈ 0.578 µM)	<0.06	<0.06	1 (≈ 1.16 µM)	–	–	–	–	–
CCC1OC(=O)C(C)C(=O)C(C)C(OC2OC(C)CC(N(C)C)C2O)C(C)(OC)CC(C)C(=O)C(C)C2N(C3CN(Cc4ccnc5ccccc45)C3)C(=O)OC12C (centres unmarked) [Example 1.16, 3-descladinosyl-11,12-dideoxy-6-O-methyl-3-oxo-12,11-(oxycarbonyl-(1-((quinolin-4-yl)-methyl)-azetidin-3-yl)-imino)-erythromycin A]	0.5 (≈ 0.618 µM)	0.25 (≈ 0.309 µM)	<0.06	<0.06	4.25 (≈ 5.25 µM)	–	–	–	–	–
CCC1OC(=O)C(C)C(=O)C(C)C(OC2OC(C)CC(N(C)C)C2O)C(C)(OC)CC(C)C(=O)C(C)C2N(C3CN(Cc4ccnc5nccnc45)C3)C(=O)OC12C (centres unmarked) [Example 1.24, 3-descladinosyl-11,12-dideoxy-6-O-methyl-3-oxo-12,11-(oxycarbonyl-(1-((pyrido[2,3-b]pyrazin-4-yl)-methy)-azetidin-3-yl)-imino)-erythromycin A]	1 (≈ 1.23 µM)	0.25 (≈ 0.308 µM)	<0.06	<0.06	4 (≈ 4.93 µM)	–	–	–	–	–
CCC1OC(=O)C(C)C(=O)C(C)C(OC2OC(C)CC(N(C)C)C2O)C(C)(OC)CC(C)C(=O)C(C)C2N(CC3CCCN3Cc3ccc(OC)nc3)C(=O)OC12C (centres unmarked) [12.03]	–	–	–	–	–	4 (≈ 4.9 µM)	0.5 (≈ 0.612 µM)	>64.00	<0.06	>64.00
CC[C@H]1OC(=O)[C@H](C)C(=O)[C@H](C)[C@@H](O[C@@H]2O[C@H](C)C[C@H](N(C)C)[C@H]2O)[C@](C)(OC)C[C@@H](C)C(=O)[C@H](C)[C@H]2N(CC3(O)CN(C(=O)c4cc5ccncc5[nH]4)C3)C(=O)O[C@]12C [7.27]	–	–	–	–	–	1 (≈ 1.19 µM)	1 (≈ 1.19 µM)	<0.06	<0.06	>64.00
CCC1OC(=O)C(C)C(=O)C(C)C(OC2OC(C)CC(N(C)C)C2O)C(C)(OC)CC(C)C(=O)C(C)C2N(C3CN(C(C)c4ccncc4)C3)C(=O)OC12C (stereo not drawn) [Example 1.21, 1R-(pyridin-4-yl)ethyl]	2 (≈ 2.59 µM)	0.5 (≈ 0.647 µM)	<0.06	<0.06	32 (≈ 41.4 µM)	–	–	–	–	–
CCC1OC(=O)C(C)C(=O)C(C)C(OC2OC(C)CC(N(C)C)C2O)C(C)(OC)CC(C)C(=O)C(C)C2N(C3CN(C(=O)NCc4cnc5ccccc5c4)C3)C(=O)OC12C (centres unmarked) [Example 2.11, N-((quinolin-3-)methyl) aminocarbonyl]	0.5 (≈ 0.587 µM)	0.12 (≈ 0.141 µM)	2 (≈ 2.35 µM)	<0.06	>64.00	–	–	–	–	–
